Experimental data: PubChem BioAssay (NCI)
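Following 48 hours of exposure in 96-well plates, responses at five concentrations were used to interpolate endpoints linearly. At the GI50, growth is halved. At the TGI there is no net growth.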

Experiments:
Test in all cases: DTP human tumour cell line panel, 48 h
RXF 393 renal = test system: RXF 393 renal
SK-MEL-2 melanoma = test system: SK-MEL-2 melanoma
HS 578T breast = test system: HS 578T breast
786-0 renal = test system: 786-0 renal
KM12 colon = test system: KM12 colon
K-562 leukemia = test system: K-562 leukemia
HOP-62 NSCLC = test system: HOP-62 NSCLC
NCI-H23 lung = test system: NCI-H23 lung
SN12C renal = test system: SN12C renal
SNB-19 CNS = test system: SNB-19 CNS
U251 CNS = test system: U251 CNS
HCT-116 colon = test system: HCT-116 colon
RPMI-8226 leukemia = test system: RPMI-8226 leukemia
T-47D breast = test system: T-47D breast
MCF7 breast = test system: MCF7 breast
SF-539 CNS = test system: SF-539 CNS
HT29 colon = test system: HT29 colon
MALME-3M melanoma = test system: MALME-3M melanoma
MOLT-4 leukemia = test system: MOLT-4 leukemia
SK-OV-3 ovarian = test system: SK-OV-3 ovarian
M14 melanoma = test system: M14 melanoma
NCI-H226 lung = test system: NCI-H226 lung
SF-268 CNS = test system: SF-268 CNS
OVCAR-5 ovarian = test system: OVCAR-5 ovarian
BT-549 breast = test system: BT-549 breast
COLO 205 colon = test system: COLO 205 colon
ACHN renal = test system: ACHN renal
NCI-H460 lung = test system: NCI-H460 lung
A498 renal = test system: A498 renal
SW-620 colon = test system: SW-620 colon
IGROV1 ovarian = test system: IGROV1 ovarian
HL-60(TB) leukemia = test system: HL-60(TB) leukemia
PC-3 prostate = test system: PC-3 prostate
SK-MEL-28 melanoma = test system: SK-MEL-28 melanoma
MDA-MB-435 = test system: MDA-MB-435
SF-295 CNS = test system: SF-295 CNS
UACC-257 melanoma = test system: UACC-257 melanoma
UO-31 renal = test system: UO-31 renal
OVCAR-4 ovarian = test system: OVCAR-4 ovarian
NCI/ADR-RES ovarian = test system: NCI/ADR-RES ovarian
OVCAR-3 ovarian = test system: OVCAR-3 ovarian
HCT-15 colon = test system: HCT-15 colon
SNB-75 CNS = test system: SNB-75 CNS
DU-145 prostate = test system: DU-145 prostate
NCI-H522 lung = test system: NCI-H522 lung
SR leukemia = test system: SR leukemia
OVCAR-8 ovarian = test system: OVCAR-8 ovarian
A549 NSCLC = test system: A549 NSCLC
SK-MEL-5 melanoma = test system: SK-MEL-5 melanoma
LOX IMVI melanoma = test system: LOX IMVI melanoma
MDA-MB-231 breast = test system: MDA-MB-231 breast
HCC-2998 colon = test system: HCC-2998 colon
CAKI-1 renal = test system: CAKI-1 renal
UACC-62 melanoma = test system: UACC-62 melanoma
CCRF-CEM leukemia = test system: CCRF-CEM leukemia
TK-10 renal = test system: TK-10 renal
HOP-92 NSCLC = test system: HOP-92 NSCLC

## COc1ccc(C2=NNC(c3sc(Cl)nc3Cl)C2)cc1 (centres undefined)
RXF 393 renal
  GI50: 18.4 µM
  TGI: 46.8 µM
SK-MEL-2 melanoma
  GI50: 5.47 µM
  TGI: 21 µM
HS 578T breast
  GI50: 16.8 µM
  TGI: 67.4 µM
786-0 renal
  GI50: 4.06 µM
  TGI: > 100 µM
KM12 colon
  GI50: 5.56 µM
  TGI: 19.8 µM
K-562 leukemia
  GI50: 3.63 µM
  TGI: 36.8 µM
HOP-62 NSCLC
  GI50: 28.4 µM
  TGI: > 100 µM
NCI-H23 lung
  GI50: 10.6 µM
  TGI: 26.7 µM
SN12C renal
  GI50: 4.02 µM
  TGI: 16.7 µM
SNB-19 CNS
  GI50: 20.8 µM
  TGI: 68.6 µM
U251 CNS
  GI50: 9.08 µM
  TGI: 22.1 µM
HCT-116 colon
  GI50: 3.39 µM
  TGI: 14.9 µM
RPMI-8226 leukemia
  GI50: 3.86 µM
  TGI: 19.2 µM
T-47D breast
  GI50: 2.68 µM
  TGI: 8.89 µM
MCF7 breast
  GI50: 3.28 µM
  TGI: 16.4 µM
SF-539 CNS
  GI50: 4.58 µM
  TGI: 32 µM
HT29 colon
  GI50: 5.12 µM
  TGI: 18.6 µM
MALME-3M melanoma
  GI50: 11.2 µM
  TGI: 29 µM
MOLT-4 leukemia
  GI50: 3.58 µM
  TGI: 22.1 µM
SK-OV-3 ovarian
  GI50: 13.2 µM
  TGI: 51.4 µM
M14 melanoma
  GI50: 3.47 µM
  TGI: 16.8 µM
NCI-H226 lung
  GI50: 2.85 µM
  TGI: > 100 µM
SF-268 CNS
  GI50: 5.65 µM
  TGI: 27.5 µM
OVCAR-5 ovarian
  GI50: 9.21 µM
  TGI: 26.4 µM
BT-549 breast
  GI50: 2.89 µM
  TGI: 9.82 µM
COLO 205 colon
  GI50: 2.17 µM
  TGI: 4.4 µM
ACHN renal
  GI50: 4.58 µM
  TGI: 20.6 µM
NCI-H460 lung
  GI50: 24.3 µM
  TGI: 75.1 µM
A498 renal
  GI50: 33.1 µM
  TGI: > 100 µM
SW-620 colon
  GI50: 4.87 µM
  TGI: 23.6 µM
IGROV1 ovarian
  GI50: 5.21 µM
  TGI: 22.2 µM
HL-60(TB) leukemia
  GI50: 10.4 µM
  TGI: 64.1 µM
PC-3 prostate
  GI50: 6.11 µM
  TGI: 29.5 µM
SK-MEL-28 melanoma
  GI50: 10.9 µM
  TGI: 24.8 µM
MDA-MB-435
  GI50: 3.25 µM
  TGI: 16.7 µM
SF-295 CNS
  GI50: 25.1 µM
  TGI: 77.9 µM
UACC-257 melanoma
  GI50: 16 µM
  TGI: 36.2 µM
UO-31 renal
  GI50: 6.62 µM
  TGI: 20.3 µM
OVCAR-4 ovarian
  GI50: 11.5 µM
  TGI: 25.4 µM
NCI/ADR-RES ovarian
  GI50: 10.2 µM
  TGI: > 100 µM
OVCAR-3 ovarian
  GI50: 3.26 µM
  TGI: 8.79 µM
HCT-15 colon
  GI50: 3.78 µM
  TGI: 19.3 µM
SNB-75 CNS
  GI50: 36.6 µM
  TGI: > 100 µM
DU-145 prostate
  GI50: 7.38 µM
  TGI: 20.4 µM
NCI-H522 lung
  GI50: 2.23 µM
  TGI: 7.69 µM
SR leukemia
  GI50: 2.54 µM
  TGI: 19.7 µM
OVCAR-8 ovarian
  GI50: 3.6 µM
  TGI: 21.5 µM
A549 NSCLC
  GI50: 29.8 µM
  TGI: > 100 µM
SK-MEL-5 melanoma
  GI50: 3.51 µM
  TGI: 14.3 µM
LOX IMVI melanoma
  GI50: 3.25 µM
  TGI: 13.7 µM
MDA-MB-231 breast
  GI50: 3.12 µM
  TGI: 14 µM
HCC-2998 colon
  GI50: 16.9 µM
  TGI: 33.9 µM
CAKI-1 renal
  GI50: 11.8 µM
  TGI: 39.4 µM
UACC-62 melanoma
  GI50: 6.94 µM
  TGI: 21.1 µM
CCRF-CEM leukemia
  GI50: 2.75 µM
  TGI: 15.7 µM

## C/C(=N\NC(=S)N1CCCC1)c1ccccn1
RXF 393 renal
  GI50: 0.188 µM
  TGI: 7.14 µM
SK-MEL-2 melanoma
  GI50: 0.242 µM
  TGI: 14.4 µM
HS 578T breast
  GI50: 0.198 µM
  TGI: 20.5 µM
786-0 renal
  GI50: 0.047 µM
  TGI: 11 µM
KM12 colon
  GI50: < 0.01 µM
  TGI: 15.2 µM
K-562 leukemia
  GI50: < 0.01 µM
  TGI: > 55.9 µM
HOP-62 NSCLC
  GI50: < 0.01 µM
  TGI: 13.8 µM
NCI-H23 lung
  GI50: < 0.01 µM
  TGI: 42.8 µM
SN12C renal
  GI50: 0.0132 µM
  TGI: 11.8 µM
SNB-19 CNS
  GI50: 0.112 µM
  TGI: 14.7 µM
TK-10 renal
  GI50: 0.105 µM
  TGI: 13.7 µM
U251 CNS
  GI50: < 0.01 µM
  TGI: 11.9 µM
HCT-116 colon
  GI50: < 0.01 µM
  TGI: 12.1 µM
RPMI-8226 leukemia
  GI50: < 0.01 µM
  TGI: 15.6 µM
T-47D breast
  GI50: < 0.01 µM
  TGI: 11 µM
MCF7 breast
  GI50: < 0.01 µM
  TGI: 7.55 µM
SF-539 CNS
  GI50: < 0.0265 µM
  TGI: 3.08 µM
HT29 colon
  GI50: < 0.01 µM
  TGI: 17.8 µM
MALME-3M melanoma
  GI50: < 0.0349 µM
  TGI: 1.64 µM
MOLT-4 leukemia
  GI50: < 0.0115 µM
  TGI: 11.6 µM
SK-OV-3 ovarian
  GI50: 0.0232 µM
  TGI: 11.2 µM
M14 melanoma
  GI50: < 0.01 µM
  TGI: 4.06 µM
NCI-H226 lung
  GI50: < 0.01 µM
  TGI: 2.85 µM
SF-268 CNS
  GI50: 0.0261 µM
  TGI: 12.7 µM
OVCAR-5 ovarian
  GI50: 0.0763 µM
  TGI: 14.8 µM
BT-549 breast
  GI50: 0.018 µM
  TGI: 14.9 µM
COLO 205 colon
  GI50: < 0.01 µM
  TGI: 10.8 µM
ACHN renal
  GI50: < 0.01 µM
  TGI: 7.53 µM
NCI-H460 lung
  GI50: < 0.01 µM
  TGI: 7.06 µM
A498 renal
  GI50: 0.0798 µM
  TGI: 2.37 µM
SW-620 colon
  GI50: < 0.01 µM
  TGI: 16.8 µM
IGROV1 ovarian
  GI50: < 0.01 µM
  TGI: 5.09 µM
HL-60(TB) leukemia
  GI50: 0.01 µM
  TGI: 0.229 µM
PC-3 prostate
  GI50: < 0.01 µM
  TGI: 16.7 µM
SK-MEL-28 melanoma
  GI50: 0.32 µM
  TGI: 13.7 µM
MDA-MB-435
  GI50: 0.0299 µM
  TGI: 21.8 µM
SF-295 CNS
  GI50: < 0.01 µM
  TGI: 5.9 µM
UACC-257 melanoma
  GI50: < 0.01 µM
  TGI: 0.166 µM
UO-31 renal
  GI50: < 0.011 µM
  TGI: 3.18 µM
OVCAR-4 ovarian
  GI50: < 0.01 µM
  TGI: 2.3 µM
NCI/ADR-RES ovarian
  GI50: < 0.01 µM
  TGI: 10.6 µM
OVCAR-3 ovarian
  GI50: < 0.01 µM
  TGI: 12.1 µM
HCT-15 colon
  GI50: < 0.01 µM
  TGI: 18.9 µM
SNB-75 CNS
  GI50: 0.273 µM
  TGI: 13 µM
DU-145 prostate
  GI50: 0.0428 µM
  TGI: 14.8 µM
NCI-H522 lung
  GI50: 0.171 µM
  TGI: 6.09 µM
SR leukemia
  GI50: < 0.01 µM
  TGI: > 49.9 µM
HOP-92 NSCLC
  GI50: 0.0508 µM
  TGI: 7.98 µM
OVCAR-8 ovarian
  GI50: < 0.01 µM
  TGI: 12.4 µM
A549 NSCLC
  GI50: < 0.01 µM
  TGI: 10.5 µM
SK-MEL-5 melanoma
  GI50: 0.0348 µM
  TGI: 0.42 µM
LOX IMVI melanoma
  GI50: < 0.01 µM
  TGI: 11.1 µM
MDA-MB-231 breast
  GI50: < 0.0348 µM
  TGI: 16.2 µM
HCC-2998 colon
  GI50: 0.132 µM
  TGI: 13.9 µM
CAKI-1 renal
  GI50: 0.0353 µM
  TGI: 6.86 µM
UACC-62 melanoma
  GI50: 0.09 µM
  TGI: 0.534 µM
CCRF-CEM leukemia
  GI50: < 0.01 µM
  TGI: 23.1 µM
